# In patent US5140009A (Tap Pharmaceuticals, Inc., priority 1990, dated 1992):
# Numbered stars: 1 amine (or outer) side, 2 acyl side, 3 side chain; on linkers, the order of the positions; unused ones are H or OH. Square brackets hold non-standard residues; d marks the D form. Peptide text beside a SMILES is read from it. * marks the point of attachment. X8 = CN1CCN(S(=O)(=O)N[C@@H](Cc2ccccc2)C(=O)*)CC1; Propanoyl(3-(4-F-phenyl)) = O=C(CCc1ccc(F)cc1)*; 1Nal = N[C@@H](Cc1cccc2ccccc12)C(=O)O; 2Nal = N[C@@H](Cc1ccc2ccccc2c1)C(=O)O; NMeY = CN[C@@H](Cc1ccc(O)cc1)C(=O)O; Piperazinyl(4-Me) = CN1CCN(*)CC1; NHPhenethyl = c1ccc(CCN*)cc1; Nicotinoyl = O=C(c1cccnc1)*; X3 = O=C(CCc1ccc2ccccc2c1)*; X5 = C1CCC(N(C2CCCCC2)*)CC1; NMeS = CN[C@@H](CO)C(=O)O; Morpholide = C1CN(*)CCO1; NHcHex = C1CCC(N*)CC1; CO = O=C([*:1])[*:2]; For = O=C*
# Target: T1, LHRH receptors (Rattus norvegicus, UniProt P30969)
# T1 construct: Pituitary membranes containing LHRH receptors are prepared in batches from quick-frozen rat pituitaries; tissue Hilltop Labs; host or cells: rat pituitary membranes
# T1 sequence (P30969 1-327): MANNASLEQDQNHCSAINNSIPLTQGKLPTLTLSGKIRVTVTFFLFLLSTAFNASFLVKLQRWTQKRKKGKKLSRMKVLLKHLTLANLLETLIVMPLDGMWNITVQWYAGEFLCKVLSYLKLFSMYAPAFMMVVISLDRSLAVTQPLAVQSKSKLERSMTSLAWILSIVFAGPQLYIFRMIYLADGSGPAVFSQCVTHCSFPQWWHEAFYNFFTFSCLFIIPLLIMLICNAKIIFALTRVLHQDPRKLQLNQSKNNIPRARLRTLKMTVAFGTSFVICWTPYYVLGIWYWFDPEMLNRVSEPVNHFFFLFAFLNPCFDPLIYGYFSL
# Assay: Receptor Binding (radioligand receptor binding assay)
# Conditions: Receptor Binding pkI, table 3; rat pituitary membranes, radioiodinated [D-Leu^6 -des Gly^10 ]-LHRH ethyl amide 50 pM, 2 hours at 4° C.
row,Compound,Ki
1,"CCNC(=O)[C@@H]1CCCN1C(=O)[C@H](CCCNC(=N)N)NC(=O)[C@H](CC(C)C)NC(=O)[C@@H](Cc1c[nH]c2ccccc12)NC(=O)[C@H](Cc1ccc(O)cc1)NC(=O)[C@H](CO)NC(=O)[C@H](Cc1c[nH]c2ccccc12)NC(=O)[C@H](Cc1ccccc1)NC(=O)N(C1CCCCC1)C1CCCCC1 [Compound 126, (2-9)[N-(N-alpha-Dicyclohexylaminocarbonyl)-Phe^2 -D-Trp^6 -Pro^9 NHEt]LHRH] ({X5-CO}-FWSY[dW]LRP-NHEt)",37.2 nM

# Same assay, conditions: table 3; rat pituitary membranes, radioiodinated [D-Leu^6 -des Gly^10 ]-LHRH ethyl amide 50 pM, 2 hours at 4° C.; read-out: Receptor Binding pkI (converted)
row,Compound,Ki
1,"CCNC(=O)[C@@H]1CCCN1C(=O)[C@H](CCCN=C(N)N)NC(=O)[C@H](CC(C)C)NC(=O)[C@@H](CCCCNC(=O)c1cccnc1)NC(=O)[C@H](Cc1ccc(O)cc1)NC(=O)[C@H](CO)NC(=O)[C@H](Cc1c[nH]c2ccccc12)NC(=O)CCc1ccc(F)cc1 [Compound 119, N-(3-(4-Fluorophenyl)propionyl)-Trp-Ser-Tyr-D-Lys(Nic) -Leu-Arg-Pro-NHEt] ({Propanoyl(3-(4-F-phenyl))}-WSY[dK](Nicotinoyl)LRP-NHEt)",0.347 nM
2,"CCNC(=O)[C@@H]1CCCN1C(=O)[C@H](CCCN=C(N)N)NC(=O)[C@H](CC(C)C)NC(=O)[C@@H](CCCCNC(=O)c1cccnc1)NC(=O)[C@H](Cc1ccc(O)cc1)N(C)C(=O)[C@H](CO)NC(=O)[C@@H](Cc1c[nH]c2ccccc12)NC(=O)CCc1ccc(F)cc1 [Compound 122, N-(3-(4-Fluorophenyl)propionyl)-D-Trp-Ser-N-Me-Tyr-D -Lys(Nic)-Leu-Arg-ProNHEt] ({Propanoyl(3-(4-F-phenyl))}-[dW]S[NMeY][dK](Nicotinoyl)LRP-NHEt)",0.00955 nM
3,"CCNC(=O)[C@@H]1CCCN1C(=O)[C@H](CCCNC(=N)N)NC(=O)[C@H](CC(C)C)NC(=O)[C@@H](Cc1c[nH]c2ccccc12)NC(=O)[C@H](Cc1ccc(O)cc1)NC(=O)[C@H](CO)NC(=O)[C@H](Cc1c[nH]c2ccccc12)NC(=O)[C@H](Cc1ccccc1)NC(=O)NCCc1ccccc1 [Compound 124, (2-9)[N-(N-alpha-Phenethylaminocarbonyl)-Phe^2 -D-Trp^6 -Pro^9 NHEt]LHRH] ({NHPhenethyl-CO}-FWSY[dW]LRP-NHEt)",0.347 nM
4,"CCNC(=O)[C@@H]1CCCN1C(=O)[C@H](CCCNC(=N)N)NC(=O)[C@H](CC(C)C)NC(=O)[C@@H](Cc1c[nH]c2ccccc12)NC(=O)[C@H](Cc1ccc(O)cc1)NC(=O)[C@H](CO)NC(=O)[C@H](Cc1c[nH]c2ccccc12)NC(=O)[C@H](Cc1ccccc1)NC(=O)NC1CCCCC1 [Compound 125, (2-9)[N-(N-alpha-Cyclohexylaminocarbonyl)-Phe^2 -D-Trp^6 -Pro^9 NHEt]LHRH] ({NHcHex-CO}-FWSY[dW]LRP-NHEt)",0.251 nM
5,"CCNC(=O)[C@@H]1CCCN1C(=O)[C@H](CCCNC(=N)N)NC(=O)[C@H](CC(C)C)NC(=O)[C@@H](Cc1c[nH]c2ccccc12)NC(=O)[C@H](Cc1ccc(O)cc1)NC(=O)[C@H](CO)NC(=O)[C@H](Cc1c[nH]c2ccccc12)NC(=O)[C@H](Cc1ccccc1)NS(=O)(=O)N1CCN(C)CC1 [Compound 129, N-(N-alpha-(N-Methylpiperazinosulfonyl))-Phe-Trp-Ser-Tyr -D-Trp-Leu-Arg-ProNHEt] (X8-WSY[dW]LRP-NHEt)",1.86 nM

# Results, then the compound that gave them:
row,Ki,Compound
1,0.0955 nM,CCNC(=O)[C@@H]1CCCN1C(=O)[C@H](CCCN=C(N)N)NC(=O)[C@H](CC(C)C)NC(=O)[C@@H](Cc1c[nH]c2ccccc12)NC(=O)[C@H](Cc1ccc(O)cc1)NC(=O)[C@H](CO)N(C)C(=O)[C@@H](Cc1c[nH]c2ccccc12)NC(=O)CCc1ccc(F)cc1 [Compound 121] ({Propanoyl(3-(4-F-phenyl))}-[dW][NMeS]Y[dW]LRP-NHEt)
2,0.331 nM,"CC(C)C[C@H](NC(=O)[C@@H](Cc1cn(C=O)c2ccccc12)NC(=O)[C@H](Cc1ccc(O)cc1)NC(=O)[C@H](CO)NC(=O)[C@@H](Cc1cn(C=O)c2ccccc12)NC(=O)CCc1ccc(F)cc1)C(=O)N[C@@H](CCCNC(=N)N)C(=O)N1CCC[C@H]1C(=O)N[C@H](C)C(N)=O [Compound 123, N-3-(4-Fluorophenyl)propionyl-D-Trp-(N-indole-formyl)-Ser -Tyr-D-Trp(N-indole-formyl)-Leu-Arg-Pro-D-AlaNH2] ({Propanoyl(3-(4-F-phenyl))}-[dW](For)SY[dW](For)LRP[dA]-NH2)"
3,0.2 nM,"CCNC(=O)N[C@@H](Cc1ccccc1)C(=O)N[C@@H](Cc1c[nH]c2ccccc12)C(=O)N[C@@H](CO)C(=O)N[C@@H](Cc1ccc(O)cc1)C(=O)N[C@H](Cc1c[nH]c2ccccc12)C(=O)N[C@@H](CC(C)C)C(=O)N[C@@H](CCCNC(=N)N)C(=O)N1CCC[C@H]1C(=O)NCC [Compound 127, (2-9)[N-(N-alpha-Ethylaminocarbonyl)-Phe^2 -D-Trp^6 -Pro^9 NHEt]LHRH] ({NHEt-CO}-FWSY[dW]LRP-NHEt)"
4,0.447 nM,"CCNC(=O)[C@@H]1CCCN1C(=O)[C@H](CCCNC(=N)N)NC(=O)[C@H](CC(C)C)NC(=O)[C@@H](Cc1c[nH]c2ccccc12)NC(=O)[C@H](Cc1ccc(O)cc1)NC(=O)[C@H](CO)NC(=O)[C@H](Cc1c[nH]c2ccccc12)NC(=O)[C@H](Cc1ccccc1)NC(=O)N1CCN(C)CC1 [Compound 128, (2-9)[N-(N-alpha-N-methylpiperazinocarbonyl)-Phe^2 -D-Trp^6 -Pro^9 NHEt]LHRH] ({Piperazinyl(4-Me)-CO}-FWSY[dW]LRP-NHEt)"
5,1.45 nM,"CCNC(=O)[C@@H]1CCCN1C(=O)[C@H](CCCNC(=N)N)NC(=O)[C@H](CC(C)C)NC(=O)[C@@H](Cc1c[nH]c2ccccc12)NC(=O)[C@H](Cc1ccc(O)cc1)NC(=O)[C@H](CO)NC(=O)[C@H](Cc1c[nH]c2ccccc12)NC(=O)[C@H](Cc1ccccc1)NC(=O)CCc1ccc2ccccc2c1 [Compound 133, N-3-(2-Naphthyl)propionyl-Phe-Trp-Ser-Tyr-D-Trp-Leu-Arg -Pro-NHEt] (X3-FWSY[dW]LRP-NHEt)"
6,0.398 nM,"CCNC(=O)[C@@H]1CCCN1C(=O)[C@H](CCCNC(=N)N)NC(=O)[C@H](CC(C)C)NC(=O)[C@@H](Cc1c[nH]c2ccccc12)NC(=O)[C@H](Cc1ccc(O)cc1)NC(=O)[C@H](CO)NC(=O)[C@H](Cc1c[nH]c2ccccc12)NC(=O)[C@@H](Cc1ccccc1)NC(C)=O [Compound 134, N-Acetyl-D-Phe-Trp-Ser-Tyr-D-Trp-Leu-Arg-ProNHEt] (Ac-[dF]WSY[dW]LRP-NHEt)"
7,0.263 nM,"CCNC(=O)[C@@H]1CCCN1C(=O)[C@H](CCCNC(=N)N)NC(=O)[C@H](CC(C)C)NC(=O)[C@@H](Cc1c[nH]c2ccccc12)NC(=O)[C@H](Cc1ccc(O)cc1)NC(=O)[C@H](CO)NC(=O)[C@H](Cc1cccc2ccccc12)NC(=O)N1CCOCC1 [Compound 137, N-(N-alpha-Morpholinocarbonyl)-1-Nal-Ser-Tyr-D-Trp-Leu -Arg-ProNHEt] ({Morpholide-CO}-[1Nal]SY[dW]LRP-NHEt)"
8,1 nM,"CCNC(=O)[C@@H]1CCCN1C(=O)[C@H](CCCNC(=N)N)NC(=O)[C@H](CC(C)C)NC(=O)[C@@H](Cc1c[nH]c2ccccc12)NC(=O)[C@H](Cc1ccc(O)cc1)NC(=O)[C@H](CO)NC(=O)[C@H](Cc1ccc2ccccc2c1)NC(=O)N1CCOCC1 [Compound 138, N-(N-alpha-morpholinocarbonyl) -2-Nal-Ser-Tyr-D-Trp-Leu-Arg-ProNHEt] ({Morpholide-CO}-[2Nal]SY[dW]LRP-NHEt)"
